Numbers after ± are expanded uncertainties.
Assay: activity coefficient (dimensionless); of the first substance listed, at infinite dilution; xn = mol fraction of the nth substance listed
Details: 101.33 kPa, Liquid, Chromatography, x1 = 0

SMILES | activity coefficient (328.15 K) | activity coefficient (338.15 K) | activity coefficient (348.15 K) | activity coefficient (358.15 K) | activity coefficient (368.15 K) | activity coefficient (378.15 K) | activity coefficient (318.15 K)
Cc1ccccc1C [1,2-dimethylbenzene] + CCCCCCCCCCCC[N+](C)(C)CCOc1ccccc1.N#C[N-]C#N | 1.23 ± 0.08 | 1.28 ± 0.08 | 1.32 ± 0.09 | 1.36 ± 0.09 | 1.4 ± 0.09 | 1.43 ± 0.09 | 
Cc1ccccc1C [1,2-dimethylbenzene] + CCCCCCCCCCCC[N+](C)(C)CCOc1ccccc1.O=S(=O)([N-]S(=O)(=O)C(F)(F)F)C(F)(F)F | 0.83 ± 0.053 | 0.874 ± 0.056 | 0.922 ± 0.058 | 0.968 ± 0.061 | 1.01 ± 0.06 |  | 0.783 ± 0.051
Cc1cccc(C)c1 [1,3-dimethylbenzene] + CCCCCCCCCCCC[N+](C)(C)CCOc1ccccc1.N#C[N-]C#N | 1.38 ± 0.09 | 1.44 ± 0.09 | 1.5 ± 0.1 | 1.56 ± 0.1 | 1.61 ± 0.11 | 1.66 ± 0.11 | 
Cc1cccc(C)c1 [1,3-dimethylbenzene] + CCCCCCCCCCCC[N+](C)(C)CCOc1ccccc1.O=S(=O)([N-]S(=O)(=O)C(F)(F)F)C(F)(F)F | 0.902 ± 0.057 | 0.957 ± 0.06 | 1.01 ± 0.06 | 1.07 ± 0.07 | 1.12 ± 0.07 |  | 0.847 ± 0.054
Cc1ccc(C)cc1 [1,4-dimethylbenzene] + CCCCCCCCCCCC[N+](C)(C)CCOc1ccccc1.N#C[N-]C#N | 1.38 ± 0.09 | 1.44 ± 0.09 | 1.5 ± 0.1 | 1.57 ± 0.1 | 1.63 ± 0.11 | 1.69 ± 0.11 | 
Cc1ccc(C)cc1 [1,4-dimethylbenzene] + CCCCCCCCCCCC[N+](C)(C)CCOc1ccccc1.O=S(=O)([N-]S(=O)(=O)C(F)(F)F)C(F)(F)F | 0.916 ± 0.058 | 0.967 ± 0.061 | 1.02 ± 0.06 | 1.08 ± 0.07 | 1.14 ± 0.07 |  | 0.861 ± 0.055
C1COCCO1 [1,4-dioxane] + CCCCCCCCCCCC[N+](C)(C)CCOc1ccccc1.N#C[N-]C#N | 0.76 ± 0.05 | 0.79 ± 0.051 | 0.818 ± 0.053 | 0.846 ± 0.054 | 0.871 ± 0.056 | 0.898 ± 0.057 | 
C1COCCO1 [1,4-dioxane] + CCCCCCCCCCCC[N+](C)(C)CCOc1ccccc1.O=S(=O)([N-]S(=O)(=O)C(F)(F)F)C(F)(F)F | 0.483 ± 0.037 | 0.517 ± 0.039 | 0.551 ± 0.04 | 0.584 ± 0.041 | 0.619 ± 0.043 |  | 0.45 ± 0.036
C=CCCCCCCCC [1-decene] + CCCCCCCCCCCC[N+](C)(C)CCOc1ccccc1.N#C[N-]C#N | 6.45 ± 0.44 | 6.67 ± 0.45 | 6.83 ± 0.47 | 6.99 ± 0.48 | 7.14 ± 0.49 | 7.22 ± 0.49 | 
C=CCCCCCCCC [1-decene] + CCCCCCCCCCCC[N+](C)(C)CCOc1ccccc1.O=S(=O)([N-]S(=O)(=O)C(F)(F)F)C(F)(F)F | 4.15 ± 0.28 | 4.27 ± 0.29 | 4.4 ± 0.3 | 4.52 ± 0.31 | 4.63 ± 0.32 |  | 4.02 ± 0.27
C=CCCCCC [1-heptene] + CCCCCCCCCCCC[N+](C)(C)CCOc1ccccc1.N#C[N-]C#N | 4.19 ± 0.29 | 4.28 ± 0.29 | 4.36 ± 0.3 | 4.43 ± 0.3 | 4.51 ± 0.31 | 4.59 ± 0.31 | 
C=CCCCCC [1-heptene] + CCCCCCCCCCCC[N+](C)(C)CCOc1ccccc1.O=S(=O)([N-]S(=O)(=O)C(F)(F)F)C(F)(F)F | 2.59 ± 0.18 | 2.67 ± 0.18 | 2.76 ± 0.19 | 2.84 ± 0.19 | 2.92 ± 0.2 |  | 2.5 ± 0.17
C#CCCCCC [1-heptyne] + CCCCCCCCCCCC[N+](C)(C)CCOc1ccccc1.N#C[N-]C#N | 1.93 ± 0.13 | 2.03 ± 0.14 | 2.12 ± 0.14 | 2.21 ± 0.15 | 2.3 ± 0.16 | 2.4 ± 0.16 | 
C#CCCCCC [1-heptyne] + CCCCCCCCCCCC[N+](C)(C)CCOc1ccccc1.O=S(=O)([N-]S(=O)(=O)C(F)(F)F)C(F)(F)F | 1.53 ± 0.1 | 1.61 ± 0.11 | 1.68 ± 0.11 | 1.75 ± 0.12 | 1.83 ± 0.12 |  | 1.45 ± 0.1
C#CCCCC [1-hexyne] + CCCCCCCCCCCC[N+](C)(C)CCOc1ccccc1.N#C[N-]C#N | 1.66 ± 0.11 | 1.74 ± 0.12 | 1.82 ± 0.12 | 1.88 ± 0.13 | 1.95 ± 0.13 | 2.02 ± 0.14 | 
C#CCCCC [1-hexyne] + CCCCCCCCCCCC[N+](C)(C)CCOc1ccccc1.O=S(=O)([N-]S(=O)(=O)C(F)(F)F)C(F)(F)F | 1.33 ± 0.09 | 1.39 ± 0.09 | 1.45 ± 0.1 | 1.51 ± 0.1 | 1.57 ± 0.1 |  | 1.26 ± 0.08
CCC[N+](=O)[O-] [1-nitropropane] + CCCCCCCCCCCC[N+](C)(C)CCOc1ccccc1.N#C[N-]C#N | 0.83 ± 0.053 | 0.85 ± 0.055 | 0.868 ± 0.055 | 0.886 ± 0.056 | 0.903 ± 0.057 | 0.92 ± 0.058 | 
CCC[N+](=O)[O-] [1-nitropropane] + CCCCCCCCCCCC[N+](C)(C)CCOc1ccccc1.O=S(=O)([N-]S(=O)(=O)C(F)(F)F)C(F)(F)F | 0.747 ± 0.049 | 0.77 ± 0.05 | 0.793 ± 0.052 | 0.815 ± 0.053 | 0.837 ± 0.054 |  | 0.722 ± 0.048
C#CCCCCCC [1-octyne] + CCCCCCCCCCCC[N+](C)(C)CCOc1ccccc1.N#C[N-]C#N | 2.22 ± 0.15 | 2.34 ± 0.16 | 2.46 ± 0.17 | 2.57 ± 0.17 | 2.68 ± 0.18 | 2.8 ± 0.19 | 
C#CCCCCCC [1-octyne] + CCCCCCCCCCCC[N+](C)(C)CCOc1ccccc1.O=S(=O)([N-]S(=O)(=O)C(F)(F)F)C(F)(F)F | 1.78 ± 0.12 | 1.86 ± 0.13 | 1.95 ± 0.13 | 2.03 ± 0.14 | 2.12 ± 0.14 |  | 1.69 ± 0.11
C=CCCC [1-pentene] + CCCCCCCCCCCC[N+](C)(C)CCOc1ccccc1.N#C[N-]C#N | 3.3 ± 0.22 | 3.36 ± 0.23 | 3.42 ± 0.23 | 3.48 ± 0.24 | 3.54 ± 0.24 | 3.61 ± 0.25 | 
C=CCCC [1-pentene] + CCCCCCCCCCCC[N+](C)(C)CCOc1ccccc1.O=S(=O)([N-]S(=O)(=O)C(F)(F)F)C(F)(F)F | 1.88 ± 0.13 | 1.93 ± 0.13 | 1.98 ± 0.13 | 2.03 ± 0.14 | 2.08 ± 0.14 |  | 1.83 ± 0.12
C#CCCC [1-pentyne] + CCCCCCCCCCCC[N+](C)(C)CCOc1ccccc1.N#C[N-]C#N | 1.47 ± 0.1 | 1.53 ± 0.1 | 1.6 ± 0.11 | 1.66 ± 0.11 | 1.73 ± 0.12 | 1.79 ± 0.12 | 
C#CCCC [1-pentyne] + CCCCCCCCCCCC[N+](C)(C)CCOc1ccccc1.O=S(=O)([N-]S(=O)(=O)C(F)(F)F)C(F)(F)F | 1.13 ± 0.07 | 1.19 ± 0.08 | 1.25 ± 0.08 | 1.32 ± 0.09 | 1.39 ± 0.09 |  | 1.07 ± 0.07
CC(C)CC(C)(C)C [2,2,4-trimethylpentane] + CCCCCCCCCCCC[N+](C)(C)CCOc1ccccc1.N#C[N-]C#N | 7.07 ± 0.48 | 7.15 ± 0.49 | 7.23 ± 0.49 | 7.32 ± 0.5 | 7.39 ± 0.5 | 7.47 ± 0.51 | 
CC(C)CC(C)(C)C [2,2,4-trimethylpentane] + CCCCCCCCCCCC[N+](C)(C)CCOc1ccccc1.O=S(=O)([N-]S(=O)(=O)C(F)(F)F)C(F)(F)F | 3.72 ± 0.25 | 3.77 ± 0.26 | 3.82 ± 0.26 | 3.86 ± 0.26 | 3.9 ± 0.27 |  | 3.66 ± 0.25
CCC(C)(C)C [2,2-dimethylbutane] + CCCCCCCCCCCC[N+](C)(C)CCOc1ccccc1.N#C[N-]C#N | 5.84 ± 0.4 | 5.95 ± 0.41 | 6.05 ± 0.41 | 6.14 ± 0.42 | 6.25 ± 0.43 | 6.35 ± 0.43 | 
CCC(C)(C)C [2,2-dimethylbutane] + CCCCCCCCCCCC[N+](C)(C)CCOc1ccccc1.O=S(=O)([N-]S(=O)(=O)C(F)(F)F)C(F)(F)F | 2.91 ± 0.2 | 2.99 ± 0.2 | 3.07 ± 0.21 | 3.15 ± 0.21 | 3.24 ± 0.22 |  | 2.82 ± 0.19
CCOC(C)(C)C [2-ethoxy-2-methylpropane] + CCCCCCCCCCCC[N+](C)(C)CCOc1ccccc1.N#C[N-]C#N | 3.66 ± 0.25 | 3.74 ± 0.25 | 3.82 ± 0.26 | 3.9 ± 0.27 | 3.97 ± 0.27 | 4.03 ± 0.27 | 
CCOC(C)(C)C [2-ethoxy-2-methylpropane] + CCCCCCCCCCCC[N+](C)(C)CCOc1ccccc1.O=S(=O)([N-]S(=O)(=O)C(F)(F)F)C(F)(F)F | 1.87 ± 0.13 | 1.94 ± 0.13 | 2.01 ± 0.14 | 2.09 ± 0.14 | 2.16 ± 0.15 |  | 1.8 ± 0.12

From the NIST ThermoML archive (doi:10.1016/j.fluid.2018.09.024)
